The source of these data is PubChem BioAssay AID1918953 (Molecular Pharmacology Branch, DTP, NCI, 2023).

Where “and” joins values, the source holds several entries; their conditions need not be identical. Identical values can stand only once.

The assay relates to MDA-MB-231 complex spheroid viability. Kind of assay: Anticancer human tumor MDA-MB-231/ATCC cell line growth inhibition.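 As to all read-outs here: drug exposure lasted 7 days starting on day 3 of spheroid growth.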 As to conditions: for viability, T/C: stronger effect = lower value. The method in brief:
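Drug combinations with the LSD1 inhibitor iadademstat tested on tumor cells co-cultured as spheroids with endothelial cells and mesenchymal stem cells. Concentrations descended in half-log increments from clinical Cmax or 10 microM.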

Setting [1] is: curve of first compound, second compound 0.1 µM.
[2] abbreviates: curve of first compound, second compound 0.316 µM.
The mark [3] stands for this setting: curve of first compound, second compound 1 µM.
Where [4] appears, read: curve of first compound, second compound 3.16 µM.
The mark [5] stands for this setting: curve of first compound, second compound 10 µM.
[6] abbreviates: second compound 0.1 µM, first compound 0.0316 µM.
The mark [7] stands for this setting: second compound 0.1 µM, first compound 0.1 µM.
Where [8] appears, read: second compound 0.1 µM, first compound 0.316 µM.
Where [9] appears, read: second compound 0.1 µM, first compound 1 µM.
Where [10] appears, read: second compound 0.316 µM, first compound 0.0316 µM.
Setting [11] is: second compound 0.316 µM, first compound 0.1 µM.
[12] abbreviates: second compound 0.316 µM, first compound 0.316 µM.
Where [13] appears, read: second compound 0.316 µM, first compound 1 µM.
Setting [14] is: second compound 1 µM, first compound 0.0316 µM.
The mark [15] stands for this setting: second compound 1 µM, first compound 0.1 µM.
Setting [16] is: second compound 1 µM, first compound 0.316 µM.
[17] abbreviates: second compound 1 µM, first compound 1 µM.
The mark [18] stands for this setting: second compound 3.16 µM, first compound 0.0316 µM.
The mark [19] stands for this setting: second compound 3.16 µM, first compound 0.1 µM.
Where [20] appears, read: second compound 3.16 µM, first compound 0.316 µM.
[21] abbreviates: second compound 3.16 µM, first compound 1 µM.
Setting [22] is: second compound 10 µM, first compound 0.0316 µM.
Where [23] appears, read: second compound 10 µM, first compound 0.1 µM.
Where [24] appears, read: second compound 10 µM, first compound 0.316 µM.
[25] abbreviates: second compound 10 µM, first compound 1 µM.

A word on the IC50: it is the concentration that inhibits the measured activity by half. In general, viability, T/C refers to the ratio of treated to control. Take `O=C(C=Cn1cnc(-c2cc(C(F)(F)F)cc(C(F)(F)F)c2)n1)NNc1cnccn1` + NC1CCC(NC2CC2c2ccccc2)CC1: the IC50 under setting [1] came out at 5.44 nM; the IC50 under setting [2] amounted to 4.93 nM; the IC50 under setting [3] was 6.56 nM; the IC50 under setting [4] was found to be 6.04 nM; the IC50 under setting [5] is below 3.16 nM. The viability, T/C was 61.7% (second compound 0.1 µM, first compound 0.00316 µM); 37% (second compound 0.1 µM, first compound 0.01 µM); 14.9% under setting [6]; 10.4% under setting [7]; 9% under setting [8]; 6.32% under setting [9]. Further, the viability, T/C reads like this: (second compound 0.316 µM, first compound 0.00316 µM) 58.9%; (second compound 0.316 µM, first compound 0.01 µM) 36.2%; under setting [10], 15%; under setting [11], 11.4%; under setting [12], 7.56%; under setting [13], 5.07%. The viability, T/C is 64.6% (second compound 1 µM, first compound 0.00316 µM); 41.7% (second compound 1 µM, first compound 0.01 µM); 15.4% under setting [14]; 11.4% under setting [15]; 8.75% under setting [16]; 6.54% under setting [17]. Further, the viability, T/C is, setting by setting: (second compound 3.16 µM, first compound 0.00316 µM) 56%; (second compound 3.16 µM, first compound 0.01 µM) 45.4%; under setting [18], 13.9%; under setting [19], 11.2%; under setting [20], 8.03%; under setting [21], 6.06%. Further, the viability, T/C runs as follows: (second compound 10 µM, first compound 0.00316 µM) 49.2%; (second compound 10 µM, first compound 0.01 µM) 34.5%; under setting [22], 14%; under setting [23], 9.12%; under setting [24], 7.43%; under setting [25], 5.83%.
With `CC1COCCN1c1cc(C2(S(C)(=N)=O)CC2)nc(-c2ccnc3[nH]ccc23)n1` (stereo unspecified), the viability, T/C is 105% and 111% (compound 0.0316 µM); 98.6% and 111% (compound 0.1 µM); 79.9% and 109% (compound 0.316 µM); 53.7% and 62% (compound 1 µM); 36.3% and 31.3% (compound 3.16 µM); 28.1% and 24% (compound 10 µM). Where the note is “curve of compound”, the IC50 is 1280 nM and 1530 nM.
As for `CC1(C)CCC(CN2CCN(c3ccc(C(=O)NS(=O)(=O)c4ccc(NCC5CCOCC5)c([N+](=O)[O-])c4)c(Oc4cnc5[nH]ccc5c4)c3)CC2)=C(c2ccc(Cl)cc2)C1` + NC1CC1c1ccc(-c2cccc(O)c2)cc1, the IC50 reads like this: under setting [1], 4480 nM; under setting [2], 4290 nM; under setting [3], 4430 nM; under setting [4], 4280 nM; under setting [5], below 31.6 nM. For the same compound, the viability, T/C is 90.9% under setting [6]; 93% under setting [7]; 94.5% under setting [8]; 112% under setting [9]; 71.2% (second compound 0.1 µM, first compound 3.16 µM); 1.41% (second compound 0.1 µM, first compound 10 µM). Moreover, the viability, T/C runs as follows: under setting [10], 74.1%; under setting [11], 78.6%; under setting [12], 82.1%; under setting [13], 77.9%; (second compound 0.316 µM, first compound 3.16 µM) 67.6%; (second compound 0.316 µM, first compound 10 µM) 1.16%. In addition, the viability, T/C reads like this: under setting [14], 75.2%; under setting [15], 70%; under setting [16], 76.7%; under setting [17], 80.5%; (second compound 1 µM, first compound 3.16 µM) 70%; (second compound 1 µM, first compound 10 µM) 1.72%. Also, the viability, T/C runs as follows: under setting [18], 68.2%; under setting [19], 70.2%; under setting [20], 78.8%; under setting [21], 79.4%; (second compound 3.16 µM, first compound 3.16 µM) 67.1%; (second compound 3.16 µM, first compound 10 µM) 1.48%. The viability, T/C under setting [22] is 48.5%; the viability, T/C under setting [23] was 42.5%; the viability, T/C under setting [24] was 48.5%; the viability, T/C under setting [25] was 55.3%; the viability, T/C (second compound 10 µM, first compound 3.16 µM) was 45.6%; the viability, T/C (second compound 10 µM, first compound 10 µM) was 0.6%.
For the compound `NS(=O)(=O)OCC1CC(n2ccc3c(NC4CCc5ccccc54)ncnc32)CC1O` (stereo unspecified) + NC1CC1c1ccc(-c2cccc(O)c2)cc1, the IC50 stood at 82.3 nM under setting [1]; 75.3 nM under setting [2]; 82 nM under setting [3]; 70.6 nM under setting [4]; 36.4 nM under setting [5]. Also, the viability, T/C is 128% (second compound 0.1 µM, first compound 0.00949 µM); 94.3% (second compound 0.1 µM, first compound 0.03 µM); 44.1% (second compound 0.1 µM, first compound 0.0949 µM); 28.6% (second compound 0.1 µM, first compound 0.3 µM); 28.8% (second compound 0.1 µM, first compound 0.949 µM); 27.9% (second compound 0.1 µM, first compound 3 µM). The viability, T/C is 118% (second compound 0.316 µM, first compound 0.00949 µM); 93.5% (second compound 0.316 µM, first compound 0.03 µM); 39.1% (second compound 0.316 µM, first compound 0.0949 µM); 27.2% (second compound 0.316 µM, first compound 0.3 µM); 23.9% (second compound 0.316 µM, first compound 0.949 µM); 27.8% (second compound 0.316 µM, first compound 3 µM). Also, the viability, T/C is, setting by setting: (second compound 1 µM, first compound 0.00949 µM) 114%; (second compound 1 µM, first compound 0.03 µM) 90.1%; (second compound 1 µM, first compound 0.0949 µM) 44.2%; (second compound 1 µM, first compound 0.3 µM) 29.3%; (second compound 1 µM, first compound 0.949 µM) 25.6%; (second compound 1 µM, first compound 3 µM) 28.4%. Also, the viability, T/C is, setting by setting: (second compound 3.16 µM, first compound 0.00949 µM) 116%; (second compound 3.16 µM, first compound 0.03 µM) 78.9%; (second compound 3.16 µM, first compound 0.0949 µM) 40.8%; (second compound 3.16 µM, first compound 0.3 µM) 27%; (second compound 3.16 µM, first compound 0.949 µM) 30.4%; (second compound 3.16 µM, first compound 3 µM) 28.3%. The viability, T/C is 68.6% (second compound 10 µM, first compound 0.00949 µM); 53.4% (second compound 10 µM, first compound 0.03 µM); 34.8% (second compound 10 µM, first compound 0.0949 µM); 27% (second compound 10 µM, first compound 0.3 µM); 26.3% (second compound 10 µM, first compound 0.949 µM); 20.2% (second compound 10 µM, first compound 3 µM).
For `Nc1ccn(C2OC(CO)C(O)C2(F)F)c(=O)n1` (stereo unspecified), the viability, T/C (compound 0.000949 µM) is 20.4% and 39.3%; the viability, T/C (compound 0.003 µM) was 17.2% and 31%; the viability, T/C (compound 0.00949 µM) was 15.5% and 19.9%; the viability, T/C (compound 0.03 µM) is 12.6% and 17.8%; the viability, T/C (compound 0.0949 µM) was 8.77% and 15.2%; the viability, T/C (compound 0.3 µM) is 5.47% and 14%. The IC50 (curve of compound) is below 0.949 nM.
Take `CC[C@@]1(O)C(=O)OCc2c1cc1n(c2=O)Cc2cc3c(CN(C)C)c(O)ccc3nc2-1`: the viability, T/C runs as follows: (compound 0.000316 µM) 89.7% and 88.6%; (compound 0.001 µM) 64.9% and 65.5%; (compound 0.00316 µM) 39.1% and 39.5%; (compound 0.01 µM) 25.3% and 25.9%; (compound 0.0316 µM) 17.1% and 22.8%; (compound 0.1 µM) 10.3% and 16%. Moreover, for the setting “curve of compound”, the IC50 was 1.99 nM and 2.01 nM.
